From US4267112A, “Antibiotic U-58,431” (The Upjohn Company, priority 1979, dated 1981)

Assays:
[1] = test system: Diplococcus pneumoniae UC 41; assay: antibacterial broth MIC assay; assay type: cell-based; details: Brain Heart Infusion Broth, 42 hours
Protocol: (§1) The antibacterial assay is a standard microbiological broth assay. The MIC is determined by standard methods using two-fold dilutions of the antibiotic in Brian Heart Infusion Broth (Difco Lab., Detroit, Michigan). The inocula are overnight cultures of the test organisms, diluted so that the final population contains approximately 10^5 cells/ml. The tubes are incubated at 28° to 37° C. for 42 hours. The lowest antibiotic concentration which allows no growth=MIC or minimum inhibitory concentration.

Escherichia coli UC 45 = assay: antibacterial broth MIC assay; assay type: cell-based; details: Brain Heart Infusion Broth, 42 hours
Protocol: as §1

[2] = test system: Klebsiella pneumoniae UC 58; assay: antibacterial broth MIC assay; assay type: cell-based; details: Brain Heart Infusion Broth, 42 hours
Protocol: as §1

Proteus vulgaris UC 93 = assay: antibacterial broth MIC assay; assay type: cell-based; details: Brain Heart Infusion Broth, 42 hours
Protocol: as §1

[3] = test system: Pseudomonas aeruginosa UC 95; assay: antibacterial broth MIC assay; assay type: cell-based; details: Brain Heart Infusion Broth, 42 hours
Protocol: as §1

[4] = test system: Salmonella schottmuelleri UC 126; assay: antibacterial broth MIC assay; assay type: cell-based; details: Brain Heart Infusion Broth, 42 hours
Protocol: as §1

[5] = test system: Staphylococcus aureus 284 UC 76; assay: antibacterial broth MIC assay; assay type: cell-based; details: Brain Heart Infusion Broth, 42 hours
Protocol: as §1

[6] = test system: Staphylococcus aureus UC 570; assay: antibacterial broth MIC assay; assay type: cell-based; details: Brain Heart Infusion Broth, 42 hours
Protocol: as §1

[7] = test system: Staphylococcus aureus UC 746; assay: antibacterial broth MIC assay; assay type: cell-based; details: Brain Heart Infusion Broth, 42 hours
Protocol: as §1

[8] = test system: Streptococcus faecalis UC 694; assay: antibacterial broth MIC assay; assay type: cell-based; details: Brain Heart Infusion Broth, 42 hours
Protocol: as §1

[9] = test system: Streptococcus hemolyticus UC 152; assay: antibacterial broth MIC assay; assay type: cell-based; details: Brain Heart Infusion Broth, 42 hours
Protocol: as §1

[10] = test system: Blastomyces dermatidis UC 1466; assay: antifungal agar dilution test; assay type: cell-based; parameters: key: -: inhibition; +: no inhibition; details: 28° C., 72 hours
Protocol: (§2) The antifungal spectrum for antibiotic U-58,431 was conducted on a standard agar […] assay. The results are as follows: An agar dilution method is used. 100 mg amounts of material is solubilized in 1 ml of dimethylformamide (DMF) and diluted to 10 ml with mycophil Broth (BBL labs.) unless completely soluble in water. The material to be tested is incorporated in melted (48° C.) mycophil Agar at concentrations of 1000, 100, 10 and 1 mcg/ml. Fifteen ml of agar is pipetted into a petri dish. After solidification, the surface is streaked with agar spore suspensions of human fungal pathogens. The suspensions are made by adding 10 ml sterile distilled water to agar […] of the test organisms. The slant surface is scraped with a sterile inoculating needle, and 0.5 ml of this suspension is added to 9.5 ml melted (48° C.) mycophil Agar in a stamp streak well. (Each stamp streak base has 6 wells.) The streaked plates are incubated at 28° C. for 72 hours at which time results are recorded. Readings are by visual observation.

Candida albicans UC 7163 = assay: antifungal agar dilution test; assay type: cell-based; parameters: key: -: inhibition; +: no inhibition; details: 28° C., 72 hours
Protocol: as §2

Candida albicans UC 7164 = assay: antifungal agar dilution test; assay type: cell-based; parameters: key: -: inhibition; +: no inhibition; details: 28° C., 72 hours
Protocol: as §2

[11] = test system: Cryptococcus neoformans UC 1139; assay: antifungal agar dilution test; assay type: cell-based; parameters: key: -: inhibition; +: no inhibition; details: 28° C., 72 hours
Protocol: as §2

[12] = test system: Cryptococcus neoformans UC 4869; assay: antifungal agar dilution test; assay type: cell-based; parameters: key: -: inhibition; +: no inhibition; details: 28° C., 72 hours
Protocol: as §2

Geotrichum sp. UC 1207 = assay: antifungal agar dilution test; assay type: cell-based; parameters: key: -: inhibition; +: no inhibition; details: 28° C., 72 hours
Protocol: as §2

[13] = test system: Hormodendrum compactum UC 1222; assay: antifungal agar dilution test; assay type: cell-based; parameters: key: -: inhibition; +: no inhibition; details: 28° C., 72 hours
Protocol: as §2

[14] = test system: Nocardia asteroides UC 2052; assay: antifungal agar dilution test; assay type: cell-based; parameters: key: -: inhibition; +: no inhibition; details: 28° C., 72 hours
Protocol: as §2

[15] = test system: Sporotrichum schenckii UC 1364; assay: antifungal agar dilution test; assay type: cell-based; parameters: key: -: inhibition; +: no inhibition; details: 28° C., 72 hours
Protocol: as §2

[16] = test system: Trichophyton asteroides UC 4775; assay: antifungal agar dilution test; assay type: cell-based; parameters: key: -: inhibition; +: no inhibition; details: 28° C., 72 hours
Protocol: as §2

[17] = test system: Trichophyton mentagrophytes UC 4797; assay: antifungal agar dilution test; assay type: cell-based; parameters: key: -: inhibition; +: no inhibition; details: 28° C., 72 hours
Protocol: as §2

[18] = test system: Trichophyton mentagrophytes UC 4860; assay: antifungal agar dilution test; assay type: cell-based; parameters: key: -: inhibition; +: no inhibition; details: 28° C., 72 hours
Protocol: as §2

[19] = test system: Trichophyton rubrum UC 1458; assay: antifungal agar dilution test; assay type: cell-based; parameters: key: -: inhibition; +: no inhibition; details: 28° C., 72 hours
Protocol: as §2

[20] = test system: Trichophyton violaceum UC 1459; assay: antifungal agar dilution test; assay type: cell-based; parameters: key: -: inhibition; +: no inhibition; details: 28° C., 72 hours
Protocol: as §2

solubilities = assay type: physicochemical
[21] = test system: various Gram-positive and Gram-negative bacteria; assay: antibacterial activity (general statement); assay type: cell-based
Protocol: as §1

fungi = assay: antifungal activity (general statement); assay type: cell-based
Protocol: An agar dilution method is used. 100 mg amounts of material is solubilized in 1 ml of dimethylformamide (DMF) and diluted to 10 ml with mycophil Broth (BBL labs.) unless completely soluble in water. The material to be tested is incorporated in melted (48° C.) mycophil Agar at concentrations of 1000, 100, 10 and 1 mcg/ml. Fifteen ml of agar is pipetted into a petri dish. After solidification, the surface is streaked with agar spore suspensions of human fungal pathogens. The suspensions are made by adding 10 ml sterile distilled water to agar slants of the test organisms. The slant surface is scraped with a sterile inoculating needle, and 0.5 ml of this suspension is added to 9.5 ml melted (48° C.) mycophil Agar in a stamp streak well. (Each stamp streak base has 6 wells.)
The streaked plates are incubated at 28° C. for 72 hours at which time results are recorded. Readings are by visual observation.

P. vulgaris = assay: activity against P. vulgaris (general statement); assay type: cell-based
Protocol: as §1

C[C@H]1O[C@@H]2C3=C(C(=O)C(=N)C(C(N)=O)=C3O)[C@@]1(O)C[C@H]2O [U-58,431]
Minimum Inhibitory Concentration [1]: 1.0 µg/mL | Minimum Inhibitory Concentration (Escherichia coli UC 45): 250 µg/mL | Minimum Inhibitory Concentration [2]: 125 µg/mL | Minimum Inhibitory Concentration (Proteus vulgaris UC 93): 250 µg/mL | Minimum Inhibitory Concentration [3]: 125 µg/mL | Minimum Inhibitory Concentration [4]: 62.5 µg/mL | Minimum Inhibitory Concentration [5]: 125 µg/mL | Minimum Inhibitory Concentration [6]: 125 µg/mL | Minimum Inhibitory Concentration [7]: 125 µg/mL | Minimum Inhibitory Concentration [8]: 250 µg/mL | Minimum Inhibitory Concentration [9]: 125 µg/mL | inhibition at indicated concentration ([10]; 1 mcg/ml): + | inhibition at indicated concentration ([10]; 10 mcg/ml): + | inhibition at indicated concentration ([10]; 100 mcg/ml): + | inhibition at indicated concentration ([10]; 1000 mcg/ml): + | inhibition at indicated concentration (Candida albicans UC 7163; 1 mcg/ml): + | inhibition at indicated concentration (Candida albicans UC 7163; 10 mcg/ml): + | inhibition at indicated concentration (Candida albicans UC 7163; 100 mcg/ml): + | inhibition at indicated concentration (Candida albicans UC 7163; 1000 mcg/ml): + | inhibition at indicated concentration (Candida albicans UC 7164; 1 mcg/ml): + | inhibition at indicated concentration (Candida albicans UC 7164; 10 mcg/ml): + | inhibition at indicated concentration (Candida albicans UC 7164; 100 mcg/ml): + | inhibition at indicated concentration (Candida albicans UC 7164; 1000 mcg/ml): + | inhibition at indicated concentration ([11]; 1 mcg/ml): + | inhibition at indicated concentration ([11]; 10 mcg/ml): + | inhibition at indicated concentration ([11]; 100 mcg/ml): + | inhibition at indicated concentration ([11]; 1000 mcg/ml): + | inhibition at indicated concentration ([12]; 1 mcg/ml): + | inhibition at indicated concentration ([12]; 10 mcg/ml): + | inhibition at indicated concentration ([12]; 100 mcg/ml): + | inhibition at indicated concentration ([12]; 1000 mcg/ml): + | inhibition at indicated concentration (Geotrichum sp. UC 1207; 1 mcg/ml): + | inhibition at indicated concentration (Geotrichum sp. UC 1207; 10 mcg/ml): + | inhibition at indicated concentration (Geotrichum sp. UC 1207; 100 mcg/ml): + | inhibition at indicated concentration (Geotrichum sp. UC 1207; 1000 mcg/ml): + | inhibition at indicated concentration ([13]; 1 mcg/ml): + | inhibition at indicated concentration ([13]; 10 mcg/ml): + | inhibition at indicated concentration ([13]; 100 mcg/ml): + | inhibition at indicated concentration ([13]; 1000 mcg/ml): + | inhibition at indicated concentration ([14]; 1 mcg/ml): + | inhibition at indicated concentration ([14]; 10 mcg/ml): + | inhibition at indicated concentration ([14]; 100 mcg/ml): + | inhibition at indicated concentration ([14]; 1000 mcg/ml): - | inhibition at indicated concentration ([15]; 1 mcg/ml): + | inhibition at indicated concentration ([15]; 10 mcg/ml): + | inhibition at indicated concentration ([15]; 100 mcg/ml): + | inhibition at indicated concentration ([15]; 1000 mcg/ml): + | inhibition at indicated concentration ([16]; 1 mcg/ml): + | inhibition at indicated concentration ([16]; 10 mcg/ml): + | inhibition at indicated concentration ([16]; 100 mcg/ml): + | inhibition at indicated concentration ([16]; 1000 mcg/ml): + | inhibition at indicated concentration ([17]; 1 mcg/ml): + | inhibition at indicated concentration ([17]; 10 mcg/ml): + | inhibition at indicated concentration ([17]; 100 mcg/ml): + | inhibition at indicated concentration ([17]; 1000 mcg/ml): - | inhibition at indicated concentration ([18]; 1 mcg/ml): + | inhibition at indicated concentration ([18]; 10 mcg/ml): + | inhibition at indicated concentration ([18]; 100 mcg/ml): + | inhibition at indicated concentration ([18]; 1000 mcg/ml): + | inhibition at indicated concentration ([19]; 1 mcg/ml): + | inhibition at indicated concentration ([19]; 10 mcg/ml): + | inhibition at indicated concentration ([19]; 100 mcg/ml): + | inhibition at indicated concentration ([19]; 1000 mcg/ml): - | inhibition at indicated concentration ([20]; 1 mcg/ml): + | inhibition at indicated concentration ([20]; 10 mcg/ml): + | inhibition at indicated concentration ([20]; 100 mcg/ml): + | inhibition at indicated concentration ([20]; 1000 mcg/ml): + | solubility (solubilities; chloroform): slightly soluble | solubility (solubilities; cold methylene chloride): slightly soluble | solubility (solubilities; ethanol): soluble | solubility (solubilities; methanol): soluble | solubility (solubilities; water): soluble | activity against Gram-positive and Gram-negative bacteria [21]: active | activity against fungi (fungi): active | activity against P. vulgaris (P. vulgaris): active
